Assay results from BigSolDB 2.1.

Molecule `COc1cc(-c2cc(=O)c3c(O)cc(O)cc3o2)cc(OC)c1O` has a solubility (mole fraction) (in ethanol, 288.15 K) of 5.94e-06, a solubility (mole fraction) (in ethanol, 293.16 K) of 8.85e-06 and a solubility (mole fraction) (in ethanol, 298.15 K) of 1.26e-05. It also gave a solubility (mole fraction) (in ethanol, 303.15 K) of 1.72e-05, a solubility (mole fraction) (in ethanol, 308.16 K) of 2.19e-05 and a solubility (mole fraction) (in ethanol, 313.18 K) of 3e-05. It also gave a solubility (mole fraction) (in ethanol, 318.15 K) of 3.83e-05, a solubility (mole fraction) (in water, 288.15 K) of 5e-10 and a solubility (mole fraction) (in water, 293.16 K) of 1e-09. The solubility (mole fraction) (in water, 298.15 K) was 1.4e-09, the solubility (mole fraction) (in water, 303.15 K) was 2.1e-09 and the solubility (mole fraction) (in water, 308.16 K) was 3.5e-09. For the same molecule, the solubility (mole fraction) (in water, 313.18 K) was 5.6e-09 and the solubility (mole fraction) (in water, 318.15 K) was 8.1e-09.
